Assay results reported in patent US7132443B2, “Fluoropyrrolidines as dipeptidyl peptidase inhibitors” (SmithKlineBeecham Corporation, priority 2001, dated 2006).
Counter-ions that a name gives are not always drawn. Like-named read-outs stand apart in the source and are kept apart here.

What was measured:
human DPP-IV = target: T1, human DPP-IV (Homo sapiens, UniProt P27487); assay: DPP-IV assay (H-Ala-Pro-pNA hydrolysis, absorbance); type: biochemical
T1 construct: The material was isolated from human prostasomes using the method of DeMeester et al; purchased Athens Research and Technology, Inc; host or cells: human prostasomes (natural source)
Procedure: A 500 mM stock solution was prepared with dimethylsulfoxide and stored at −20° C. Gly-Pro-AMC was purchased from Enzyme System Products (product no. AMC-39) and stored at −20° C. as a 10 mM stock solution in dimethylsulfoxide. Test compounds were dissolved to 10 mM in dimethylsulfoxide and this was used as a stock solution for DPP-IV titration assays. Athens Research and Technology, Inc prepared the purified human DPP-IV. The material was isolated from human prostasomes using the method of DeMeester et al., J. Immunol.
The average enzymatic activity from wells containing dimethylsulfoxide but lacking test compound was used as a control value for calculating percent inhibition. DPP-IV (20 ng/mL) was mixed in microtiter plates with test compounds, substrate and assay buffer to yield 100 μM H-Ala-Pro-pNA•HCl in 25 mM Tris, pH 7.5, 10 mM KCl, 140 mM NaCl. The intact peptide contains a p-nitrophenylanilide which, when hydrolyzed by DPP-IV, releases the absorbant p-nitrophenylaniline. […] The enzymatic activity was determined by estimating the best linear fit to the data. Values for enzymatic activity were taken directly from the linear fit determined by the software on the plate reader.
Data Analysis: The enzymatic activity was determined by estimating the best linear fit to the data. Data reduction was performed using the Microsoft Excel RoboSage.
Determination of Ki values: Ki values were calculated from IC50 values using equation 3 assuming a competitive model.

DPP-IV activity in serum [1] = target: T2, DPP-IV activity in serum (Rattus norvegicus, UniProt P14740); assay: DPP-IV activity in serum of rats 6 hrs after oral dosing; type: in vivo; conditions: for inhibition at 1 mg/kg: rat, read-out: Percent DPP-IV inhibition At 6 hrs In Rats; for duration of action: rats, 6 hrs after 1 mg/kg oral
T2 construct: from tissue; host or cells: serum/plasma of male CD rats dosed orally
Procedure: Age and weight matched male CD rats were housed individually at 72° F. and 50% relative humidity with a 12 h light/dark cycle. Animals were dosed by oral gavage with vehicle (10 mM acetic acid) or 1 mg/kg test compound in vehicle. After 6 hrs administration of compound, the rats were anesthetized with isofluorane for cardiac blood collection. DPP-IV activity in serum was measured using the fluorogenic substrate Gly-Pro-AMC (50 mM) according to the manufacturers specification (Enzyme System Products, Livermore Calif.). The substrate was mixed with 50 mM Tris, pH 7.8, in plasma (20% final v/v) and the samples were incubated for 5–20 min at 30° C. DPP-IV activity was determined by measuring fluorescence using a cytofluor spectrofluoremeter with the filters set at 360 nm excitation and 460 nm emission. Averages and standard deviations from each group (n=3) were calculated using students t-test and compared to vehicle treated rats to determine percent inhibition as shown in Table 1.

[2] = Stability studies in Phosphate Buffered Saline by HPLC (cyclization/degradation half-life); conditions: PBS; for half-life: Phosphate Buffered Saline
Excerpt: (§1) An initial time point HPLC chromatogram is obtained followed by successive HPLC chromatograms at time points of 24, 48, 72, etc hours.
(§2) The area under the drug substance peak is compared to the initial area for each chromatogram and plotted as percent remaining from initial time (t0).

dogs = assay: Dose escalation studies in dogs, limiting gastrointestinal toxicity; type: in vivo
Procedure: The dog is a common non-rodent species routinely used to satisfy regulatory requirements. The beagle was chosen to examine the safety of the compounds of the present invention because of the knowledge of this strain's general pathology and response to a wide variety of drugs. Dogs (Marshall Farms Inc., North Rose, N.Y., USA) from 9 to 12 months (5 to 12 kg) were dosed by oral gavage at 10 mL/kg/day with vehicle (10 mM acetic acid, pH 3.3) or test compound in vehicle. Each dose was followed by a flush of approximately 10 mL of water, once daily with 24–48 hours between each subsequent dose. If limiting gastrointestinal toxicity was not observed, the dose was increased 3-fold no sooner than approximately 24 hours after the preceding dose. Limiting GI toxicity includes diarrhea, loose or mucoid feces, blood in stool, and/or sloughing of the gut epithelium. Clinical observations were made at least three times daily during treatment (once prior to dosing, approximately one hour post dose, and once in conjunction with pm viability). DPP-IV activity in serum was measured using the fluorogenic substrate Gly-Pro-AMC (50 mM) according to the manufacturers specification (Enzyme System Products, Livermore Calif.). […] DPP-IV activity was determined by measuring fluorescence using a cytofluor spectrofluoremeter with the filters set at 360 nm excitation and 460 nm emission.

DPP-IV activity in serum [3] = target: T3, DPP-IV activity in serum (Canis lupus familiaris, UniProt A0A8I3Q2I8); assay: DPP-IV activity in serum of dogs after oral dosing; type: in vivo; conditions: dog, read-out: inhibited DPP4 12 hours after oral dosing
T3 construct: The substrate was mixed with 50 mM Tris, pH 7.8, in serum (20% final v/v); from tissue; host or cells: serum of beagle dogs dosed orally

physchem = conditions: buffer, t1/2 at 37° C.
Excerpt: as §1, §2

[4] = Table I, read-out: IC50 (nM) Human DPP-IV
[5] = human DPP-IV, text b860, read-out: IC50 values

T2 sequence (P14740 37-767 limits assumed): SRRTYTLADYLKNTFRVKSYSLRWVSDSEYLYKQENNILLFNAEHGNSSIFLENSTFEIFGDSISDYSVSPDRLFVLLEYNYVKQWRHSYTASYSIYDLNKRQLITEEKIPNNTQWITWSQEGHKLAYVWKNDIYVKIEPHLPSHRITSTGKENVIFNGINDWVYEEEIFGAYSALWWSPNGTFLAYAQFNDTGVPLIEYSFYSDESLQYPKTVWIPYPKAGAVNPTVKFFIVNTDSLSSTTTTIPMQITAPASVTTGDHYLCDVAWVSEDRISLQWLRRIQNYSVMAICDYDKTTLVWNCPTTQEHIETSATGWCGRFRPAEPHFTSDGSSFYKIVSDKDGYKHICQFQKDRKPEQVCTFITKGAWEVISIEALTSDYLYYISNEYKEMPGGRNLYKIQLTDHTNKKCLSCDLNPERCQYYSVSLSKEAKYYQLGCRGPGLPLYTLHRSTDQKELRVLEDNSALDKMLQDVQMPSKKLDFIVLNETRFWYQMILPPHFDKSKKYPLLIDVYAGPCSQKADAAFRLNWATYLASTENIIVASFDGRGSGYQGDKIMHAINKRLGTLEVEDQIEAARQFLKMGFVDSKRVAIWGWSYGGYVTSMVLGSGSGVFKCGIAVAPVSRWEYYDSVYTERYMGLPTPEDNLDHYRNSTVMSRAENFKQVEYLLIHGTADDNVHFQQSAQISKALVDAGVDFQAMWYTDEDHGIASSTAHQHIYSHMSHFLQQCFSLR
T1 sequence (P27487 whole entry): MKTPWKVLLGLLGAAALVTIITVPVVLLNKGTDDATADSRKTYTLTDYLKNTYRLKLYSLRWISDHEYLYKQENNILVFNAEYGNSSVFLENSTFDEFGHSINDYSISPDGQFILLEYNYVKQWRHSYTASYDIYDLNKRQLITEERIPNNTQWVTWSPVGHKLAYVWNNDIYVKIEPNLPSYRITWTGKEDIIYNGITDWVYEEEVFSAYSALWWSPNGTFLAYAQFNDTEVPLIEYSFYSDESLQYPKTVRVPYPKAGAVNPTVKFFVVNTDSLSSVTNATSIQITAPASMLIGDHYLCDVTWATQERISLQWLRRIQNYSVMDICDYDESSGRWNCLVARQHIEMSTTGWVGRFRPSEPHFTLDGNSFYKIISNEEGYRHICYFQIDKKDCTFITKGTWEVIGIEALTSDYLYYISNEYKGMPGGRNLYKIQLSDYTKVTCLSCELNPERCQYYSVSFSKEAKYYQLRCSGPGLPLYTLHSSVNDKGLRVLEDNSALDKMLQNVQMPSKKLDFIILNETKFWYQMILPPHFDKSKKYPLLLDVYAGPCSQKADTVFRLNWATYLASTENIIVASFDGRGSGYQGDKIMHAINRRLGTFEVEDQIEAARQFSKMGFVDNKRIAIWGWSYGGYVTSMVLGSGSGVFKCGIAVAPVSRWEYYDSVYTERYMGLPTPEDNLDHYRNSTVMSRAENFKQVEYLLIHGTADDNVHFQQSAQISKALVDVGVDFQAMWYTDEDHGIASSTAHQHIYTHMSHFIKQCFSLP
T3 sequence (A0A8I3Q2I8 1-765): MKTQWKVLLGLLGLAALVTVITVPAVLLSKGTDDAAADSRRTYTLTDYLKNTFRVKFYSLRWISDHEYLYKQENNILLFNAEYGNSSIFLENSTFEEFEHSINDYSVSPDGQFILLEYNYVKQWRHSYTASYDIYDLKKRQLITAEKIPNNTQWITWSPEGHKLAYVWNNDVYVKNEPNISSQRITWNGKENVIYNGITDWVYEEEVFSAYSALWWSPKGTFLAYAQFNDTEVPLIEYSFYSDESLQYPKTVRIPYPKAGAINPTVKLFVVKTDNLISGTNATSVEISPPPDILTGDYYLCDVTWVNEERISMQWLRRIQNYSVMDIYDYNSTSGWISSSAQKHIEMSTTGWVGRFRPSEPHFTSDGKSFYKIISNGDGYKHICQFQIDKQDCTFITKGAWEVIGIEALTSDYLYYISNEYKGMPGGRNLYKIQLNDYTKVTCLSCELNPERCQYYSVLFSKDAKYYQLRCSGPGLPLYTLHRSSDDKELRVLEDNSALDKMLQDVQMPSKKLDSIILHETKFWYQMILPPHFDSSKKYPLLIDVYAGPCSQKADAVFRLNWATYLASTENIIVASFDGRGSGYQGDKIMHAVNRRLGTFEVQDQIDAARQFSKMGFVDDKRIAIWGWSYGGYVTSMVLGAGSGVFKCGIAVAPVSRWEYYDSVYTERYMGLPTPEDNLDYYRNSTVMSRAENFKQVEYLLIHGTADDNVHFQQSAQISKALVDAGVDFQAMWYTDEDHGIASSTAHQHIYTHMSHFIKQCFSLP

With `N#C[C@@H]1C[C@H](F)CN1C(=O)[C@@H](N)CCC(=O)O` [Comparison Example 2] the IC50 (human DPP-IV; [4]) was 3 nM, the IC50 (human DPP-IV; [5]) was < 5.6 nM and the inhibition at 1 mg/kg (DPP-IV activity in serum [1]; po) was 32 ± 3%. The duration of action (DPP-IV activity in serum [1]) was “poor level of duration”.

In the case of `COc1ccc(CS(=O)(=O)C(C)(C)[C@H](N)C(=O)N2C[C@@H](F)C[C@H]2C#N)cc1` [Example 9, (2S,4S)-1-{(2R)-2-Amino-3-[(4-methoxybenzyl)sulfonyl]-3-methylbutanoyl}-4-fluoropyrrolidine-2-carbonitrile hydrochloride], the “t1/2 at 37° C.” value ([2]; 37° C.) is reported as 72.21 days.

For `N#C[C@@H]1CCCN1C(=O)[C@@H](N)C(c1ccc(F)cc1)c1ccc(F)cc1` [Comparison Example 6], the “% DPP-IV Inhibition @ 6 Hrs. In Rats” value (DPP-IV activity in serum [1]; Table 3, rats, 6 Hrs.) was 15 ± 1%.

For `CC(C)(C)[C@H](N)C(=O)N1C[C@@H](F)C[C@H]1C#N` [Comparison Example 5], the “gastrointestinal toxicity, dose escalation in dogs” value (dogs; 0.3 mg/kg oral gavage) was “loose/mucoid feces with traces of blood”, the inhibition at 0.2 mg/kg (DPP-IV activity in serum [3]; po) was 2% and the IC50 (human DPP-IV; [4]) was 3 nM. It also gave an inhibition at 1 mg/kg (DPP-IV activity in serum [1]; po) of 71 ± 13%.

For `N#C[C@@H]1C[C@H](F)CN1C(=O)[C@@H](N)C(c1ccc(F)cc1)c1ccc(F)cc1` [Example 2, (2S,4S)-1-[(2S)-2-Amino-3,3-bis(4-fluorophenyl)propanoyl]-4-fluoropyrrolidine-2-carbonitrile hydrochloride], the half-life (physchem) was 11.1 days, the “gastrointestinal toxicity, dose escalation in dogs” value (dogs; dog, in vivo) was “no adverse affects on gastrointestinal toxicity” and the inhibition at 0.5 mg/kg (DPP-IV activity in serum [3]; dogs, 0.5 mg/kg oral, 12 hours, serum) was 45%. For the same compound, the inhibition at 1 mg/kg (DPP-IV activity in serum [1]; 1 mg/kg oral gavage, male CD rats, serum, 6 hrs, vs vehicle) was 68 ± 4%.

For `CC(C)[C@H](N)C(=O)N1C[C@@H](F)C[C@H]1C#N` [Comparison Example 1], the IC50 (human DPP-IV; [4]) was 1.3 nM, the IC50 (human DPP-IV; [5]) was < 5.6 nM and the inhibition at 1 mg/kg (DPP-IV activity in serum [1]; po) was 32 ± 3%. For the same compound, the duration of action (DPP-IV activity in serum [1]) was “poor level of duration”.

Compound `CC[C@H](C)[C@H](N)C(=O)N1C[C@@H](F)C[C@H]1C#N` [Comparison Example 3] has a half-life ([2]; t1/2 at 23° C., ambient room temperature 23° C.) of 2820 min and a half-life ([2]; t1/2 at 37° C. (calc.), calculated for 37° C. from value measured at 23° C.) of 1380 min.
